Tested on: patients with prior myocardial infarction (CARE study)
Assay: CARE: association of SNPs with pravastatin treatment in cardiovascular events prevention (logistic regression, odds ratio pravastatin vs placebo by genotype; Table 8)
Type: in vivo, human
Conditions: for Fatal CHD/Definite Nonfatal MI, n/total (%) / Fatal/Nonfatal MI (def & prob), n/total (%) / MI (Fatal/Nonfatal), n/total (%) / Nonfatal MI (Probable/Definite), n/total (%) / Nonfatal MI (def & prob), n/total (%): GAPD hCV8921288, All Patients
From the text: In order to identify genetic markers associated with acute coronary events (e.g. MI, stroke, unstable angina, congestive heart failure, etc.) or response to statin treatment for the prevention of coronary events, samples from the Cholesterol and Recurrent Events (CARE) study (a randomized multicentral double-blinded trial on secondary prevention of acute coronary events with pravastatin) (Sacks et al., 1991, Am. J. Cardiol. 68: 1436-1446) were genotyped. A well-documented myocardial infarction (MI) was one of the enrollment criteria for entry into the CARE study. Patients were enrolled in the CARE trial from 80 participating study centers. […] Patients were randomized to receive either 40 mg of pravastatin once daily or a matching placebo. The primary endpoint of the trial was death from coronary heart disease and the median duration of follow-up was 5.0 years (range, 4.0 to 6.2 years). […] Secondary endpoints of other related cardiovascular or metabolic disease events, and changes in clinical variables were also recorded in pravastatin-treated and placebo groups. All individuals included in the study had signed a written informed consent form and the study protocol was approved by the respective Institutional Review Boards (IRBs).
For genotyping SNPs in CARE patient samples, DNA was extracted from blood samples using conventional DNA extraction methods such as the QIA-amp kit from Qiagen. Genotypes were obtained on an ABI PRISM® 7900HT Sequence Detection PCR system (Applied Biosystems, Foster City, Calif.) by kinetic allele-specific PCR, similar to the method described by Germer et al. (Germer S., Holland M. J., Higuchi R. 2000, Genome Res. 10: 258-266).
Statistical analysis for association of SNPs with pravastatin treatment in cardiovascular events prevention (Table 8) was carried out using an overall logistic regression model that included an intercept, a parameter for the effect of a genotype containing two rare alleles versus a genotype containing no rare alleles, a parameter for the effect of a genotype containing one rare allele versus a genotype containing no rare alleles, a parameter for the effect of use of pravastatin versus the use of placebo, and parameters for the interaction effects between SNP genotypes and pravastatin use. The test of the overall model is a chi-square test with two degrees of freedom for analyses containing all three genotypes, and one degree of freedom for analyses containing two genotypes.
Effect sizes were estimated through odds ratios (pravastatin group versus placebo) for carriers of each genotype (groups of 0, 1, and 2 minor allele carriers). The effect was considered to be significant if p-value for testing whether any of the interactions between SNP genotypes and pravastatin use were <0.05. […] Odds ratios less than one indicate that the specific SNP allele has a protective effect and odds ratios greater than one indicate that the specific SNP allele has an adverse effect.

[1] = ELN hCV1253630, All Patients, Fatal CHD/Definite Non-fatal MI
[2] = ELN hCV1253630, All Patients, Fatal/Non-fatal MI (def & prob)
[3] = ELN hCV1253630, All Patients, Hosp. for Cardiovascular Disease
[4] = ELN hCV1253630, All Patients, Non-fatal MI (def & prob)
[5] = ELN hCV1253630, All Patients, Total Cardiovascular Disease Events
[6] = ELN hCV1253630, All Patients, Total Coronary Heart Disease Events
[7] = FCGR2A hCV9077561, All Patients, 0 Rare Alleles, Prava arm
[8] = FCGR2A hCV9077561, All Patients, 1 Rare Allele, Prava arm
[9] = FCGR2A hCV9077561, All Patients, 2 Rare Alleles, Prava arm
[10] = HLA-DPA1 hCV15760070, All Patients, Coronary Artery Bypass or Revascularization
[11] = HLA-DPA1 hCV15760070, All Patients, Total Coronary Heart Disease Events

SMILES: CC[C@H](C)C(=O)O[C@H]1C[C@H](O)C=C2C=C[C@H](C)[C@H](CC[C@@H](O)C[C@@H](O)CC(=O)O)[C@H]21 [pravastatin]
- Fatal CHD/Definite Non-fatal MI, n/total (%) (ELN hCV1253630, All Patients, 2 Rare Alleles, Prava, n/total 29/245): (11.8%)
- Non-fatal MI (def & prob), n/total (%) (ELN hCV1253630, All Patients, 2 Rare Alleles, Prava, n/total 30/245): (12.2%)
- Fatal/Non-fatal MI (def & prob), n/total (%) (ELN hCV1253630, All Patients, 2 Rare Alleles, Prava, n/total 33/245): (13.5%)
- Total Coronary Heart Disease Events, n/total (%) (ELN hCV1253630, All Patients, 2 Rare Alleles, Prava, n/total 88/245): (35.9%)
- Hosp. for Cardiovascular Disease, n/total (%) (ELN hCV1253630, All Patients, 2 Rare Alleles, Prava, n/total 113/245): (46.1%)
- Total Cardiovascular Disease Events, n/total (%) (ELN hCV1253630, All Patients, 2 Rare Alleles, Prava, n/total 115/245): (46.9%)
- Prava vs. Placebo Odds Ratio, 0 Rare Alleles [1]: 0.50
- Prava vs. Placebo Odds Ratio, 1 Rare Alleles [1]: 0.75
- Prava vs. Placebo Odds Ratio, 2 Rare Alleles [1]: 1.41
- Prava vs. Placebo Odds Ratio, 0 Rare Alleles [2]: 0.44
- Prava vs. Placebo Odds Ratio, 1 Rare Alleles [2]: 0.68
- Prava vs. Placebo Odds Ratio, 2 Rare Alleles [2]: 1.63
- Prava vs. Placebo Odds Ratio, 0 Rare Alleles [3]: 0.63
- Prava vs. Placebo Odds Ratio, 1 Rare Alleles [3]: 0.76
- Prava vs. Placebo Odds Ratio, 2 Rare Alleles [3]: 1.15
- Prava vs. Placebo Odds Ratio, 0 Rare Alleles [4]: 0.50
- Prava vs. Placebo Odds Ratio, 1 Rare Alleles [4]: 0.67
- Prava vs. Placebo Odds Ratio, 2 Rare Alleles [4]: 1.63
- Prava vs. Placebo Odds Ratio, 0 Rare Alleles [5]: 0.63
- Prava vs. Placebo Odds Ratio, 1 Rare Alleles [5]: 0.75
- Prava vs. Placebo Odds Ratio, 2 Rare Alleles [5]: 1.11
- Prava vs. Placebo Odds Ratio, 0 Rare Alleles [6]: 0.66
- Prava vs. Placebo Odds Ratio, 1 Rare Alleles [6]: 0.73
- Prava vs. Placebo Odds Ratio, 2 Rare Alleles [6]: 1.26
- Catheterization, n/total (%) [7]: (11.6%)
- Coronary Artery Bypass or Revascularization, n/total (%) [7]: (16.1%)
- Catheterization, n/total (%) [8]: (11.2%)
- Coronary Artery Bypass or Revascularization, n/total (%) [8]: (14.8%)
- Catheterization, n/total (%) [9]: (6.8%)
- Coronary Artery Bypass or Revascularization, n/total (%) [9]: (11.8%)
- Fatal CHD/Definite Nonfatal MI, n/total (%) (0 Rare Alleles, Prava arm): (10.5%)
- Fatal/Nonfatal MI (def & prob), n/total (%) (0 Rare Alleles, Prava arm): (10.6%)
- MI (Fatal/Nonfatal), n/total (%) (0 Rare Alleles, Prava arm): (10.9%)
- Nonfatal MI (Probable/Definite), n/total (%) (0 Rare Alleles, Prava arm): (10.3%)
- Nonfatal MI (def & prob), n/total (%) (0 Rare Alleles, Prava arm): (9.9%)
- Fatal CHD/Definite Nonfatal MI, n/total (%) (1 Rare Allele, Prava arm): (7.4%)
- Fatal/Nonfatal MI (def & prob), n/total (%) (1 Rare Allele, Prava arm): (8.7%)
- MI (Fatal/Nonfatal), n/total (%) (1 Rare Allele, Prava arm): (8.7%)
- Nonfatal MI (Probable/Definite), n/total (%) (1 Rare Allele, Prava arm): (8.1%)
- Nonfatal MI (def & prob), n/total (%) (1 Rare Allele, Prava arm): (7.6%)
- Fatal CHD/Definite Nonfatal MI, n/total (%) (2 Rare Alleles, Prava arm): (8.1%)
- Fatal/Nonfatal MI (def & prob), n/total (%) (2 Rare Alleles, Prava arm): (6.5%)
- MI (Fatal/Nonfatal), n/total (%) (2 Rare Alleles, Prava arm): (6.5%)
- Nonfatal MI (Probable/Definite), n/total (%) (2 Rare Alleles, Prava arm): (6.5%)
- Nonfatal MI (def & prob), n/total (%) (2 Rare Alleles, Prava arm): (4.8%)
- Coronary Artery Bypass or Revascularization, n/total (%) (HLA-DPA1 hCV15760070, All Patients, 0 Rare Alleles, Prava, n/total 143/1019): (14.0%)
- Total Coronary Heart Disease Events, n/total (%) (HLA-DPA1 hCV15760070, All Patients, 0 Rare Alleles, Prava, n/total 285/1019): (28.0%)
- Coronary Artery Bypass or Revascularization, n/total (%) (HLA-DPA1 hCV15760070, All Patients, 1 Rare Allele, Prava, n/total 67/443): (15.1%)
- Total Coronary Heart Disease Events, n/total (%) (HLA-DPA1 hCV15760070, All Patients, 1 Rare Allele, Prava, n/total 136/443): (30.7%)
- Coronary Artery Bypass or Revascularization, n/total (%) (HLA-DPA1 hCV15760070, All Patients, 2 Rare Alleles, Prava, n/total 9/52): (17.3%)
- Total Coronary Heart Disease Events, n/total (%) (HLA-DPA1 hCV15760070, All Patients, 2 Rare Alleles, Prava, n/total 21/52): (40.4%)
- Prava vs. Placebo Odds Ratio, 0 Rare Alleles [10]: 0.65
- Prava vs. Placebo Odds Ratio, 1 Rare Alleles [10]: 0.71
- Prava vs. Placebo Odds Ratio, 2 Rare Alleles [10]: 5.65
- Prava vs. Placebo Odds Ratio, 0 Rare Alleles [11]: 0.69
- Prava vs. Placebo Odds Ratio, 1 Rare Alleles [11]: 0.86
- Prava vs. Placebo Odds Ratio, 2 Rare Alleles [11]: 2.48
- Fatal/Non-fatal MI (def & prob), n/total (%) (HLA-DPB1 hCV8851085, All Patients, 0 Rare Alleles, Prava, n/total 82/919): (8.9%)
